Measured values: the CheMixHub ionic liquid set

Assay: xn = mol fraction of the nth substance listed

O=C1CCCCCN1 + CCO + CCCC[N+](CCCC)(CCCC)CCCC.[Cl-]
electrical conductivity [S/m], 101 kPa
Conditions	x1 = 0.0058, x3 = 0.0058	x1 = 0.00584, x3 = 0.0058	x1 = 0.00587, x3 = 0.00587	x1 = 0.0059, x3 = 0.0059	x2 = 0.555, x1 = 0.2225	x2 = 0.6648, x1 = 0.1676	x2 = 0.7728, x1 = 0.1136	x2 = 0.8892, x1 = 0.0554
295.65 K	–	–	–	–	0.218	0.2632	0.3032	–
298.15 K	–	–	–	–	0.232	0.268	0.31	–
300.65 K	–	0.0588	–	–	0.241	0.269	0.3143	–
303.15 K	–	–	–	0.0587	0.256	0.27	0.317	0.25
305.65 K	–	0.0586	–	–	0.2704	0.2713	0.317	0.25
308.15 K	–	0.0585	–	–	0.2842	0.2737	0.319	0.249
310.65 K	–	–	–	0.0585	0.2936	0.276	0.3224	0.248
313.15 K	–	0.0585	–	–	0.3023	0.278	0.325	0.248
315.65 K	–	–	–	0.0587	0.308	0.28	0.328	0.248
318.15 K	–	–	–	0.0587	0.3136	0.2821	0.329	0.248
320.65 K	–	0.0587	–	–	0.3131	0.2841	0.3303	0.246
323.15 K	–	0.0586	–	–	0.315	0.287	0.329	0.245
325.65 K	0.0584	–	–	–	0.3129	0.288	0.327	0.246
328.15 K	0.0576	–	–	–	–	0.289	–	0.246
330.65 K	–	0.0569	–	–	–	0.288	–	0.245
333.15 K	–	–	0.0562	–	–	0.288	–	0.245

CC[n+]1ccn(C)c1.N#C[N-]C#N + CCO + O
viscosity [mPa·s], 101 kPa
Conditions	298.15 K	313.15 K	328.15 K	343.15 K
x2 = 0.0957, x3 = 0.7595	3.15	2.21	–	–
x2 = 0.1156, x3 = 0.8359	2.25	1.52	–	–
x2 = 0.1191, x3 = 0.3486	6.67	4.77	3.64	2.85
x2 = 0.2007, x3 = 0.7083	2.87	2	1.42	1.08
x2 = 0.2484, x3 = 0.6015	3.39	2.36	1.74	1.34
x2 = 0.2507, x3 = 0.6986	2.65	1.76	1.25	0.94
x2 = 0.2881, x3 = 0.404	4.63	3.33	2.52	2.02
x2 = 0.379, x3 = 0.1385	5.89	4.31	3.3	2.63
x2 = 0.4202, x3 = 0.3032	4	2.92	2.23	1.77
x2 = 0.4889, x3 = 0.4093	2.77	1.95	–	–
x2 = 0.6949, x3 = 0.2046	2.27	–	–	–

O + CCOS(=O)(=O)[O-].CC[n+]1ccn(C)c1
Conditions	electrical conductivity [S/m]
298.15 K, 101.3 kPa, x1 = 1	0.00264

CC1COC(=O)O1 (stereo not drawn) + CC[N+](CC)(CC)CC.F[B-](F)(F)F
101 kPa, x1 = 1
Conditions	viscosity [mPa·s]
283.15 K	3.551
298.15 K	2.531
308.15 K	2.09
313.15 K	1.918

CCCC[n+]1ccccc1.[Br-] + CC[n+]1ccccc1.[Br-]
viscosity [mPa·s], 101 kPa
Conditions	x2 = 0.085	x2 = 0.197	x2 = 0.269	x2 = 0.352	x2 = 0.52	x2 = 0.621	x2 = 0.689	x2 = 0.811	x2 = 0.903
353.1 K	–	–	–	–	93.7	–	–	–	–
358.1 K	–	–	–	–	77.4	–	–	–	–
363.1 K	–	–	–	86.2	64.2	53.8	–	–	–
368.1 K	–	–	80.4	70.3	53.7	45.6	–	–	–
373.1 K	–	–	65.3	57.8	45.1	38.8	–	–	–
378.1 K	–	–	53.5	47.8	38.1	33.2	30.3	–	–
383.1 K	–	–	44.2	39.9	32.4	28.6	26.3	–	–
388.1 K	45.3	40.8	36.8	33.5	27.7	24.7	22.9	19.85	–
393.1 K	37.4	34.2	30.9	28.3	23.9	21.5	20	17.61	–
398.1 K	31.1	28.9	26.2	24.2	20.7	18.8	17.59	15.64	14.32
403.1 K	26.2	24.7	22.3	20.8	18	16.46	15.52	13.94	12.86
408.1 K	22.2	21.2	19.2	18	15.75	14.52	13.76	12.45	11.57
413.1 K	19.1	18.5	16.65	15.64	13.88	12.86	12.25	11.17	10.44
418.1 K	16.53	16.2	14.56	13.73	12.29	11.46	10.97	10.06	9.44
423.1 K	14.47	14.35	12.83	12.15	10.96	10.26	9.85	9.08	8.56
428.1 K	12.78	12.83	11.41	10.82	9.83	9.23	8.89	8.23	7.77
433.1 K	11.41	–	10.23	9.72	8.87	8.35	8.06	7.49	7.08
438.1 K	10.3	10.55	9.25	8.8	8.05	7.59	7.34	6.83	6.46
443.1 K	9.39	–	8.44	8.03	7.36	6.93	6.71	6.25	5.91

O + CC[n+]1ccn(C)c1.CS(=O)(=O)[O-]
Conditions	electrical conductivity [S/m]
298.15 K, 100 kPa, x1 = 1	0.00023

100 kPa, frequency 0.003 MHz, x2 = 0
Conditions	electrical conductivity [S/m]
323.15 K	0.0005
333.15 K	0.0015

C1COCCO1 + CC[n+]1ccn(C)c1.F[B-](F)(F)F
100 kPa, x1 = 1
Conditions	viscosity [mPa·s]
323.15 K	0.814
343.15 K	0.64

CC[n+]1ccn(C)c1.N#C[N-]C#N + CC[n+]1ccn(C)c1.F[B-](F)(F)F
298.1 K, 101 kPa
Conditions	viscosity [mPa·s]
x2 = 0.0448	17.2
x2 = 0.6254	27.9
x2 = 0.7856	31.4
x2 = 0.9447	34.7

CCCCn1cc[n+](CCOCCOCC[n+]2ccn(CCCC)c2)c1.N#C[N-]C#N.N#C[N-]C#N + CC[n+]1ccn(C)c1.N#C[N-]C#N + O=S(=O)([N-]S(=O)(=O)C(F)(F)F)C(F)(F)F.[Li+]
100 kPa, x1 = 0.2388, x2 = 0.6693
Conditions	electrical conductivity [S/m]
298 K	0.505
303 K	0.581
313 K	0.847
323 K	1.23
333 K	1.53
343 K	1.85

CC1COC(=O)O1 (stereo not drawn) + CC[n+]1ccn(C)c1.N#C[S-]
101.3 kPa, x2 = 0
Conditions	viscosity [mPa·s]
293.15 K	2.945
308.15 K	1.919
333.15 K	1.293

CC[n+]1ccn(C)c1.N#C[N-]C#N + CC[n+]1ccn(C)c1.N#C[S-]
100 kPa
Conditions	electrical conductivity [S/m]	viscosity [mPa·s]
298.15 K, x2 = 0.2585	2.68	16.36
308.15 K, x2 = 0.2585	3.45	12.4
318.15 K, x2 = 0	4.52	8.93
318.15 K, x2 = 0.7603	4.01	11.79
323.15 K, x2 = 0.5112	4.62	9.51
328.15 K, x2 = 0.2585	–	7.87
333.15 K, x2 = 0	–	6.37
338.15 K, x2 = 0.2585	–	6.49
348.15 K, x2 = 0.5112	–	5.87
353.15 K, x2 = 0.7603	–	5.7

CC1COC(=O)O1 (stereo not drawn) + CC[n+]1ccn(C)c1.O=S(=O)([N-]S(=O)(=O)C(F)(F)F)C(F)(F)F
101.3 kPa, x2 = 0
Conditions	viscosity [mPa·s]
303.15 K	2.246
318.15 K	1.73
338.15 K	1.294

CCC[N+]1(C)CCCC1.O=S(=O)([N-]S(=O)(=O)C(F)(F)F)C(F)(F)F + CC[n+]1ccn(C)c1.O=S(=O)([N-]S(=O)(=O)C(F)(F)F)C(F)(F)F
101 kPa
Conditions	electrical conductivity, 293.15 K [S/m]	electrical conductivity, 333.15 K [S/m]	electrical conductivity, 353.15 K [S/m]	viscosity, 293.15 K [mPa·s]	viscosity, 333.15 K [mPa·s]	viscosity, 353.15 K [mPa·s]
x2 = 0	–	1.18	1.76	–	18.8	11.6
x2 = 0.5	0.528	–	–	53.4	–	–

CC1COC(=O)O1 (stereo not drawn) + CC[n+]1ccn(C)c1.O=S(=O)([O-])C(F)(F)F
101 kPa, x2 = 0
Conditions	viscosity [mPa·s]
293.15 K	2.94
343.15 K	1.251

[Br][Al]([Br])[Br] + CC[n+]1ccn(C)c1.[Br-]
Conditions	electrical conductivity [S/m]
298.15 K, 101.3 kPa, x1 = 0.35	0.625

NC(CO)CO + CC[n+]1ccn(C)c1.[Cl-]
101 kPa, x2 = 0.667
Conditions	viscosity [mPa·s]
298.15 K	297
303.15 K	214
313.15 K	115.9
323.15 K	64.5
333.15 K	41.4

CC1COC(=O)O1 (stereo not drawn) + CC[n+]1ccn(C)c1C.O=S(=O)([N-]S(=O)(=O)C(F)(F)F)C(F)(F)F
101.3 kPa, x2 = 0
Conditions	viscosity [mPa·s]
308.15 K	2.049
348.15 K	1.14
